Experimental findings from patent US20050171182A1, “Methods and compositions for use in the treatment of mutant receptor tyrosine kinase driven cellular proliferative diseases” (priority 2003, published 2005) are described below.

One series relates to K562 cells. Briefly: MTT viability assay, K562 cells. The format is cell-based. The procedure: (§1) Given that mutant Flt3 activates cyclin D/CDK4 signaling, the effect of the CDK4 inhibitor arcyriaflavin on the viability of MV4-11 cells was tested. As a control in this experiment, an inhibitor for cyclin A/CDK2 and cyclin E/CDK2 (purvalanol) as well as an inhibitor for cyclin B/CDK1 (alsterpaullone) was included. […] The inhibitors were also tested against EOL-1 cells, which express the mutant fusion kinase FiplL1-PDGFROα and against K562 and BV173 cells (CML cell lines) and THP-1 and U937 cells (AML cell lines). The dilution range of the inhibitors was from 20 μM to 10 nM.
(§2) Viability of the cell lines was determined by an MTT assay, which is based on the reduction of the tetrazolium salt 3, [4,5-dimethylthiazol-2-yl]-2,5-diphenyltetrazolium bromide (MTT). Mitochondrial enzymes associated with metabolic activity reduce MTT to a formazan dye, which can be measured spectrometrically. Cells undergoing apoptosis show reduced metabolic activity resulting in reduced formation of the formazan dye.
In general terms: Tetrazolium dyes change colour on reduction, which living cells bring about.

For another series, the system named is BV173 cells. Put plainly: MTT viability assay, BV173 cells. Type of series: cell-based. Here is the method:
as §1, §2

The next series deals with MV4-11 cells. Put plainly: cells. The conditions noted are these: for IC50: read-out: Viability (IC50) MV4-11. Here is the method:
as §1, §2
(§3) The bone marrow environment is known to contain a multitude of cytokines. […] The cell lines were incubated with the appropriate inhibitor in the presence and absence of the cytokines GM-CSF and IL-3 (10 ng/mL each).
(§4) To test the role of MEK in the survival of MV4-11 and EOL-1 cells, a viability assay (48 hour incubation) was performed using U0126 (10 μM), an MEK specific inhibitor (see FIG. 5).

In another series the test system is EOL-1 cells. Put plainly: cells. The conditions noted are these: for IC50: read-out: Viability (IC50) EOL-1; for effect on viability of EOL-1 cells, presence of cytokines: 1 μM (U0126 10 μM), FIGS. 2, 4, 6, GM-CSF and IL-3 10 ng/mL each. The procedure:
as §1, §2, §3, §4

For the next series, the system named is THP-1 cells. Put plainly: cells. The conditions noted are these: for IC50: read-out: Viability (IC50) THP-1; for effect on viability of THP-1 cells: 48 hours, arcyriaflavin 1 μM, U0126 10 μM, FIGS. 4-6, absence and presence of cytokines. Here is the method:
as §1, §2, §3, §4

The test system of another series is U937 cells. Briefly: MTT viability assay, U937 cells. Type of series: cell-based. The procedure: as §1, §2
[1] abbreviates: exposed to inhibitor for 72 hours.
Setting [2] is: exposed to inhibitor for 72 hours, MTT.
The mark [3] stands for this setting: 48 hours, arcyriaflavin 1 μM, U0126 10 μM, FIGS. 5, 6, absence and presence of cytokines.

Read-outs that look alike come from different tables or passages of the source.

Usually IC50 stands for the concentration that gives 50% inhibition. In the case of purvalanol, the 50% inhibitory concentration (IC50) in the series on K562 cells (setting [1]) was over 10 µM; in the series on BV173 cells (setting [1]) it was over 10 µM; in the series on MV4-11 cells (setting [2]) it was 3000 nM; with EOL-1 cells (setting [2]), over 10000 nM; in the series on THP-1 cells (setting [2]), over 10 µM; in the series on U937 cells (setting [1]) it was over 10 µM.

Regarding `CS(=O)(=O)O.Cc1ccc(NC(=O)c2ccc(CN3CCN(C)CC3)cc2)cc1Nc1nccc(-c2cccnc2)n1` [imatinib], the “effect on viability of EOL-1 cells, presence of cytokines” value with EOL-1 cells (48 hours) is on record as “much less affected”. In the series on EOL-1 cells (48 hours, 1 μM, FIGS. 2, 4, cytokines absent), the “effect on viability of EOL-1 cells, absence of cytokines” value is given as “strongly reduce”.

Usually viability stands for a read-out of living cells in per cent, often relative to untreated cells. Turning to `N#CC(=C(/N)Sc1ccccc1N)/C(C#N)=C(\N)Sc1ccccc1N` [U0126, 1,4-diamino-2,3-dicyano-1,4-bis[2-aminophenylthio]butadiene], in the series with MV4-11 cells (setting [3]), the “effect on survival/viability of MV4-11 cells, overall” value is recorded as “slightly alters”. Also, the viability at 10 µM in the series on MV4-11 cells (Homo sapiens, MV4-11, 48 h, read-out: Viability (%) MV4-11 cell line, Cytokines Absent) was determined as 103%; with EOL-1 cells (Homo sapiens, EOL1, 48 h, read-out: Viability (%) EOL-1 cell line, Cytokines Absent) it was 80%; with THP-1 cells (Homo sapiens, THP-1, 48 h, read-out: Viability (%) THP-1 cell line, Cytokines Absent), 79%. Moreover, the “Viability (%) MV4-11 cell line, GM-CSF/IL-3 (10 ng/mL each)” value in the series with MV4-11 cells (human, 48 h, 10 μM) was found to be 90%. The “effect on survival/viability of EOL-1 cells, overall” value with EOL-1 cells (setting [3]) is given as “slightly alters”. In addition, in the series with EOL-1 cells (human, 48 h, 10 μM), the “Viability (%) EOL-1 cell line, GM-CSF/IL-3 (10 ng/mL each)” value is recorded as 103%. In the series on THP-1 cells, the “effect on viability of THP-1 cells” value is reported as “slightly alters”. Further, the “Viability (%) THP-1 cell line, GM-CSF/IL-3 (10 ng/mL each)” value with THP-1 cells (human, 48 h, 10 μM) turned out to be 97%.

In the case of `O=C1Cc2c([nH]c3ccc([N+](=O)[O-])cc23)-c2ccccc2N1` [alsterpaullone], the concentration for half-maximal inhibition (IC50) in the series on K562 cells (Homo sapiens, K562, exposed to inhibitor for 72 hours) was over 10 µM; in the series on BV173 cells (Homo sapiens, BV-173, exposed to inhibitor for 72 hours), 1 µM; in the series on MV4-11 cells (Homo sapiens, MV4-11, 72 h), 1000 nM; in the series on EOL-1 cells (Homo sapiens, EOL1, 72 h) it was 1000 nM; in the series on THP-1 cells (Homo sapiens, THP-1, 72 h), 1 µM; in the series with U937 cells (Homo sapiens, U-937, exposed to inhibitor for 72 hours), 0.6 µM.

Regarding `O=C1NC(=O)c2c1c1c3ccccc3[nH]c1c1[nH]c3ccccc3c21` [arcyriaflavin, arcyriaflavin A], the IC50 is over 10 µM with K562 cells (setting [1]); over 10 µM with BV173 cells (setting [1]); 500 nM in the series with MV4-11 cells (setting [2]); 200 nM in the series on EOL-1 cells (setting [2]); over 10 µM in the series on THP-1 cells (setting [2]); over 10 µM in the series on U937 cells (setting [1]). For the same compound, the “Viability (%) MV4-11 cell line, GM-CSF/IL-3 (10 ng/mL each)” value with MV4-11 cells is 52%. Moreover, the “effect on viability of MV4-11 cells, presence of cytokines” value in the series on MV4-11 cells (48 hours, 1 μM (U0126 10 μM), FIGS. 3, 4, 6, GM-CSF and IL-3 10 ng/mL each) is reported as “much reduced”. In addition, in the series on EOL-1 cells, the “Viability (%) EOL-1 cell line, GM-CSF/IL-3 (10 ng/mL each)” value was determined as 60%. Besides, the “effect on viability of EOL-1 cells, presence of cytokines” value with EOL-1 cells (48 hours) is listed as “much reduced”. For the same compound, the “Viability (%) THP-1 cell line, GM-CSF/IL-3 (10 ng/mL each)” value in the series on THP-1 cells turned out to be 96%. Moreover, in the series on THP-1 cells, the “effect on viability of THP-1 cells” value is “not affected”.
